Reference: patent publication US12605541B2, “Stabilized anti-cancer cold atmospheric plasma (CAP)-stimulated media and methods for preparing and using same” (The George Washington University, priority 2015, dated 2026)
Read-outs that look alike come from different tables or passages of the source.

Tests used:
[1] = for effect of the component on H2O2 in CAP-stimulated PBS during storage: at 8° C. (FIG. 3a) (so in the source); for effect of the appearance of the component in DMEM on H2O2 during storage: 3 days of storage at −25° C., FIG. 5d; for effect of the presence of the component in DMEM on H202 in PSM during storage: three days of storage at 8° C., FIG. 3b
Procedure: The general research strategy described herein is illustrated in FIG. 1b. I mL of PSM was made by the vertical irradiation on the medium in a well on a 12-well plate. Then, the PSM was transferred to a 1.5 mL centrifuge tube by pipette. The centrifuge tubes were stored in refrigerators with different internal temperatures (8° C. and −25° C.) for 3 days. Additionally, some centrifuge tubes were stored at 22° C., for the investigation of PSM degradation at room temperature. Ultimately, the PSM was either transferred to culture the seeded cancer cells in a 96-well plate or transferred into a black wall 96-well plate to measure for H2O2 concentration. Because PBS is not suitable for cell culture, the protocols used to transfer the CAP-stimulated PBS are slightly different from those used to transfer the CAP-stimulated DMEM.
The protocols to prepare PSM are the same among different experiments. 1 mL of PBS or DMEM (or modified DMEM, such as cysteine/methionine-free DMEM) in a well on a Coming™ Falcon™ 12-well plate was treated by CAP for 1 or 2 minutes. The gap between the end of dielectric plasma tube and the bottom of 12-well plate was 3 cm.
H2O2 containing PBS and H2O2 containing DMEM were prepared by adding 30 wt¾ H2O2 solution to PBS and DMEM, respectively.
The amino acid(s) containing PBS, calcium containing PBS, magnesium containing PBS, glucose containing PBS, phenol red containing PBS, and amino acid(s) containing DMEM were prepared by adding and dissolving specific amino acid(s), calcium chloride solution, magnesium chloride solution, D-glucose, phenol red solution or an amino acid derivative (such as 3-nitro-L-tyrosine) in PBS and DMEM, respectively. With the exception of PBS and DMEM, the added components were purchased from Sigma Aldrich.
50 μL of CAP-stimulated medium or PBS to be analyzed for H2O2 concentration was transferred to a well on a black-wall Coming™ Falcon™ 96-well clear bottom plate in triplicate. Subsequently, according to standard protocols provided by Sigma Aldrich (St. Louis, MO), the H2O2 concentration in the cold plasma-stimulated medium was measured as follows. First, 50 μL of red peroxidase substrate stock solution, 200 μL of peroxidase stock solution, and 4.75 ml of assay buffer were mixed to prepare H2O2 probe solution. 50 μL of probe solution was then added in the black 96-well plate and mixed with 50 μL of the CAP-stimulated medium or PBS. After 30 min of storage at the room temperature, with protecting from light, a Hybrid Technology HI microplate reader (BioTek Instruments, Winooski, VT) was used to measure the fluorescence with an excitation wavelength at 540 nm and an emission wavelength at 590 nm. The final measured fluorescent strength of the experimental group was obtained by deducting the measured fluorescence of the control group from the measured fluorescence of the experimental group. The standard H202 solution was used to prepare the standard H202 concentration-fluorescence curve. Based on this standard curve, we obtained the H202 concentration in CAP-stimulated medium or PBS. The triplicate experiments were independently repeated for three times

[2] = test system: MDA-MB-231 cells; assay: MTT cell viability of breast cancer cells cultured in CAP-stimulated media; type: cell-based, human; details: CAP treatment time 2 minutes, storage at −25° C. for 3 days, FIG. 5e
Procedure: All DMEM and PBS were mixed with 1% (v/v) antibiotic (penicillin and streptomycin) (Thermo Fisher Scientific) before any experiments were performed. […] All cancer cell lines were seeded with a confluence of 3×10^4 cells/mL and a volume of 100 μL in each well on a 96-well plate and were cultured for 6 hours in a complete media composed of Dulbecco's modified Eagle's medium supplemented with 10% (v/v) fetal bovine serum (Thermo Fisher Scientific). and 1% (v/v) antibiotic (penicillin and streptomycin) solution under standard cell culture conditions (a humidified, 37° C., 5% CO2 environment). In each experiment, 6 wells in a single column on the 96-well plate were seeded with cancer cells.
First, the initial culture medium which had been cultured cells for 6 hours was removed before this step. […] In each experiment, 6 wells in a single column on the 96-well plate were seeded with cancer cells. […]
The cancer cells in the 96-well plates were cultured in the 96-well plate under standard cell culture conditions (a humidified, 37° C., 5% CO2 environment) for 3 days. […] The 96-well plate filled with hydrochloric acid containing isopropanol solution was then read by a Hybrid Technology HI microplate reader (BioTek Instruments, Winooski, VT) at a 570 nm of absorbance. […] The average value of measured cell viability from 6 wells was regarded as the cell viability measured from one independent experiment. […]

Compound	effect of the component on H202 degradation in CAP-stimulated PBS-based solution [1]	effect of the component on H2O2 in CAP-stimulated PBS during storage [1]	effect of the component on H2O2 degradation in CAP-stimulated PBS during freezing storage [1]	effect of the component on H2O2 degradation in CAP-stimulated PBS during freezing storage ([1]; storage at −25° C., FIG. 5c)	effect of the appearance of the component in DMEM on H2O2 during storage [1]	effect of the presence of the component in DMEM on H202 in PSM during storage [1]	effect of the appearance of the component in DMEM on the anti-cancer capacity of PSM [2]
N[C@@H](Cc1ccccc1)C(=O)O [phenylalanine]	noticeable degradation	noticeable H2O2 degradation	–	–	–	–	–
N[C@@H](Cc1c[nH]c2ccccc12)C(=O)O [tryptophan]	–	inhibit the degradation	aggravate the degradation	–	–	–	–
NCCCC[C@H](N)C(=O)O [lysine]	–	inhibit the degradation	–	aggravate the degradation	–	–	–
N[C@@H](Cc1ccc(O)cc1)C(=O)O [tyrosine]	–	–	aggravate the degradation	–	–	–	–
CSCC[C@H](N)C(=O)O [methionine]	most significant degradation	–	two most reactive components	–	complete consumption of H2O2	noticeable H202 degradation	significantly aggravates the degradation
N[C@@H](CS)C(=O)O [cysteine]	most significant degradation	–	two most reactive components	–	complete consumption of H2O2	noticeable H202 degradation	significantly aggravates the degradation
